Results from US20250195660A1, “INACTIVATING BACTERIA WITH ELECTRIC PULSES AND ANTIBIOTICS” (Purdue Research Foundation, priority 2018, published 2025).

What was measured:
[1] = tested on: Stapphylococcus aureus (gram positive bacterium number 25923); assay: Inactivation of S. aureus by 300 ns electric pulses combined with antibiotic (CFU plating); format: cell-based, Staphylococcus aureus
Protocol: (§1) Equipment. Used was a capacitor based Blumlein pulse generator with a spark gap switch to produce trapezoidal EPs of 300 ns duration at the peak with rise and fall times close to 50 ns. Multiple pulses were delivered at a frequency of 1 Hz.
(§2) The samples were treated in a standard electroporation cuvette (Dot Scientific) whose resistance must match the pulse generator's impedance to prevent pulse reflection. Utilizing Luria broth, containing 0.5% NaCl, in a cuvette with gap distances of 1 mm and 2 mm yielded the best electrical match (no reflections in the measured signal). Used were 2 mm cuvettes to ensure consistency between tests, and the applied voltage was measured across the cuvette using a LeCroy PPE 20 kV high voltage probe with a 1000:1 attenuation feeding into a TeleDyne LeCroy Waverunner 6 Zi Oscilloscope capable of measuring signals up to 4 GHz. Assuming a purely parallel plate geometry with minimal fringing gives an electric field E=V/d, where V is the peak voltage of the applied pulse and d is the gap distance.
(§3) Sample Preparation. These experiments assessed Stapphylococcus aureus (gram positive bacterium number 25923) from ATCC and Esherichia coli (gram negative bacterium number 25922) inoculated in luria broth (LB Broth Lennox, powder microbial growth medium. SIGMA-ALDRICH) by taking 8 mL of broth in a 50 mL sterile conical tube and incubating in a shaker for 20 h at 37° C. The sample was then diluted with fresh Luria broth until attaining an optical density of 0.25 for 100 μL on a photospectrometer (Molecular Devices) for a wavelength of 562 nm as measured in a 96-well plate. The optical density, which varies with growth or tube volume, was determined experimentally and set between 1×10^8 and 1.5×10^8 colony forming units (CFUs)/mL for the samples to be pulsed. These samples were then plated at dilutions between 10-6 and 100 (no dilution) depending on the effectiveness of the pulse treatments.
(§4) Electric Pulse Treatment Protocol. […] Although no consensus exists on a universal scaling law for applied EP “dose,” we fixed the energy density
(§5) [formula] • where N is the number of pulses and τ is the pulse duration. Fixing U for E=40, 30, and 20 kV/cm gave N=250, 445, and 1000 pulses, respectively. Cultures were plated as described below.
Cuvettes were filled with 365 μL of sample (sufficient to just cover the electrodes) and then 250 μL of molecular biology grade mineral oil was placed on top. Keeping the samples on ice upon achieving the required dilution further reduced experimental variability by slowing biological processes, such as fission This facilitated the assessment of the inactivation efficiency of EPs, drugs, and combined treatments.
Tests used the clinically relevant, bactericidal drug tobramycin, which targets the 30S and 50S ribosome complex and has a clinical dose from 4 to 5 μg/mL and rifampicin, which inhibits bacterial […]. Added were 0.2, 2, and 20 μg/mL of each drug to the initial bacterial dilutions prior to pulsing. Samples were immediately placed on ice to minimize cell division and reduce variability. These aliquots were also used to plate individual unpulsed controls for each drug concentration.
(§6) Plating. Plating was done on standard disposable tissue culture Petri dishes from VWR (15 cm diameter, 10 mm height) and covered with 10 mL of agar in luria broth (Agar, microbiology tested powder, SIGMA-ALDRICH), which was prepared by adding 20 g of LB lennox (SIGMA-ALDRICH) and 15 g/L of agar to water and then autoclaved.
Plated were samples at dilutions of 10^−6 and 10^−3 for low and high electric field treatments, respectively, and at 10^−6 and 10^−5 for controls All samples containing 100 μL of pulsed or diluted cultures were plated on LB agar plates and counted after overnight incubation at 37° C. […]

[2] = tested on: Esherichia coli (gram negative bacterium number 25922); assay: Inactivation of E. coli by 300 ns electric pulses combined with antibiotic (CFU plating); format: cell-based, Escherichia coli
Protocol: as §1
as §2, with “Utilizing Luria broth, containing 0.5% NaCl, in a cuvette with gap distances of 1 mm and 2 mm yielded the best electrical match (no reflections in the measured signal).” left out
as §3, §4, §5
Cuvettes were filled with 365 μL of sample (sufficient to just cover the electrodes) and then 250 μL of molecular biology grade mineral oil was placed on top.
Added were 0.2, 2, and 20 μg/mL of each drug to the initial bacterial dilutions prior to pulsing. Samples were immediately placed on ice to minimize cell division and reduce variability. These aliquots were also used to plate individual unpulsed controls for each drug concentration.
as §6
Plated were samples at dilutions of 10^−6 and 10^−3 for low and high electric field treatments, respectively, and at 10^−6 and 10^−5 for controls All samples containing 100 μL of pulsed or diluted cultures were plated on LB agar plates and counted after overnight incubation at 37° C.
Pulsing with drugs: bacterial samples of both gram-positive S. aureus and gram-negative E. coli strains were pulsed in a solution with 0.2, 2, and 20 μg/mL of tobramycin and compared to an un-pulsed drug-exposed control. Pulsing and plating were performed to ensure that the drug exposure time of the bacteria was approximately fifteen minutes.

In the case of CO[C@H]1/C=C/O[C@@]2(C)Oc3c(C)c(O)c4c(O)c(c(/C=N/N5CCN(C)CC5)c(O)c4c3C2=O)NC(=O)/C(C)=C\C=C\[C@H](C)[C@H](O)[C@@H](C)[C@@H](O)[C@@H](C)[C@H](OC(C)=O)[C@@H]1C [rifampicin], the “log-reduction of S. aureus” value ([1]; 20 kV/cm EPs + 0.2 μg/mL) is reported as 1 log, the “log-reduction of S. aureus” value ([1]; 20 kV/cm EPs + 2 μg/mL) is reported as 1 log and the “log-reduction of S. aureus” value ([1]; 20 kV/cm EPs + 20 μg/mL) is reported as 1 log. For the same compound, the “log reduction of E. coli” value ([2]; 20 μg/mL + 445 pulses of 30 kV/cm, consistent with complete sterilization) was over 9 log, the “synergy (additional kill off) compared to just the drug, E. coli” value ([2]; 20 μg/mL, EPs vs no EPs) was 4 log and the “additional log-reduction of E. coli compared to pulsing alone” value ([2]; EPs + 2 and 20 μg/mL) was 1.5 log.
